Entries after “also recorded” stand apart in the source; their conditions may differ.
How the values were obtained:
mature human miR-208a = assay: Duplex melting temperature (Tm) of anti-208a oligonucleotides annealed to complementary RNA; format: binding; conditions: for Tm / ΔTm/mod / ΔTm, DNA / ΔTm, parent: RNA complement; for Tm: duplex 1 μM in 0.9% NaCl, in °C (unit assumed); for ΔTm, DNA: versus fully DNA oligo 10931; for ΔTm, parent: versus parent 10101
Procedure: The melting temperature (Tm) of modified 16 nucleotide phosphodiester strands were determined and compared to the Tm of identical 16 nucleotide sequences having natural phosphodiester DNA nucleotides. Specifically, the relative aminoCBBN melting temperature (Tm) compared to the 2′-deoxynucleoside or oxoCBBN nucleoside with the same nucleobase was determined on a per incorporation basis by determining the difference between the melting temperature of the amino-modified 16 nucleotide length phosphodiester strand and that of the identical 16 nucleotide sequence utilizing either the 2′-deoxynucleoside or oxoCBBN phosphodiester DNA nucleotide. Tm differences of substitutions were compared only when they were placed in the same position of the sequence.
For example, the modified anti-208a oligonucleotides were annealed to the complementary sequence, twenty-two nucleotides in length, comprised of RNA nucleosides and a phosphate backbone. The complementary sequence was identical to the endogenous mature miRNA. Thermal denaturation temperatures (Tm) were measured as a maximum of the first derivative plot of melting curvex (A260 vs. Temp). The duplexes were constituted at 1 μM in a 0.9% NaCl buffer. Temperature was ramped from 25° C. to 95° C. at 1° C./min and OD's at 260 nm were read once per 30 seconds. Tm values are averages of at least two measurements.
Duplex melting temperatures for various modifications of a 16 nucleotide sequence, complementary to a nucleotide sequence of mature human miR-208a were measured using a Varian Cary 1E UV-Vis Spectrophotometer. Anti-miRNA 208a oligonucleotide sequences tested included a fully DNA phosphodiester (compound M-10931), four DNA phosphodiester oligonucleotides with 1, 2 or 3 aminoCBBN thymidine residues in place of dT residues (compounds M-1915, M-1916, M-1917, and M-11918), mixed 9 LNA/7 DNA phosphorothioate oligonucleotide (compound M-10101), and 2 mixed LNA/DNA/aminoCBBN phosphorothioate oligonucleotides where LNA thymidines of the parent compound, compound M-10101, were replaced with either 1 or 2 aminoCBBN residues (compounds M-11919 and M-11920). Duplexes were constituted at 1 μM in 0.9% NaCl. Temperature was ramped from 25° C. to 95° C. at 1° C./min and OD's at 260 nm were read once per 30 seconds.

RNA Complement = conditions: 9mer, phosphate backbone, cited from earlier work; for Tm: RNA complement, literature values
miR-208a = assay: Dual-luciferase reporter assay in HeLa cell line stably expressing miR-208a; format: cell-based; conditions: HeLa cells expressing miR-208a, 24 hours at 37° C., FIG. 6
Procedure: A HeLa cell line stably expressing miR-208a was generated. Specifically, a miRNA expression vector (Cell BioLabs, Inc.) expressing miR-208a was transfected into HeLa cells. Cells were then selected using a puromycin selection screen and clones which had detectable miR-208a expression as measured by qPCR were isolated (Ct value=˜30).
The cells were plated in a black-walled 96 well plate with 10,000 cells per well. After twenty-four hours following plating, the cells were transfected with a dual-luciferase plasmid containing the miR-208a binding site in the 3′ UTR of the renilla gene and various miR-208a inhibitors (compounds M-11919, M-11920, and M-10101). Compound M-10591 was a non-targeting control. The cells were incubated for 24 hours at 37° C. and then both firefly (as a transfection normalization) and renilla levels were measured by luminescence using the Dual-Luciferase Reporter Assay System (Promega). Data was normalized to cells treated with only the miR-208a dual luciferase plasmid (psi check 208a).

[1] = PS backbone, per modification versus parent 10101

Substance: ICs;dTs;dTs;dTs;ITs;ITs;dGs;ICs;dTs;ICs;IGs;dTs;ICs;dTs;ITs;IA [Oligo 10101, reference compound]
- Tm (mature human miR-208a; PS backbone, 10101-like): 86.7

Substance: bC.bT.bT.bT.bT.bT.dG.bC.bT.bC.dG.bT.bC.bT.bT. dA [Oligo 10924, reference compound]
- Tm (mature human miR-208a; phosphate backbone): 89.8
- ΔTm/mod (mature human miR-208a; phosphate backbone, per modification versus DNA): 2.8 ° C./modification
- ΔTm, DNA (mature human miR-208a; phosphate backbone): 36.7 °C

Substance: dC;dT;dT;dT;dT;dT;dG;dC;dT;dC;dG;dT;dC;dT;dT;dA (antisense CTTTTTGCTCGTCTTA; DNA, backbone not given here) [Oligo 10931, reference compound]
- Tm (mature human miR-208a; phosphate backbone): 53.1
- ΔTm, DNA (mature human miR-208a; phosphate backbone): 0 °C

Substance: dG;IT;dG;dA;IT;dA;IT;dG;dC [DNA_9mer_PO_3LNA-T]
- Tm (RNA Complement): 50 °C

Substance: dG;aIT;dG;dA;aIT;dA;aIT;dG;dC [DNA_9mer_PO_3aminoLNA-T]
- Tm (RNA Complement): 47 °C
- ΔTm/mod (RNA Complement; versus 3LNA-T parent, literature): -1 ° C./modification

Substance: lCs.dTs.dTs.dTs.abTs.abTs.dGs.lCs.dTs.lCs.lGs.dTs. lCs.dTs.lTs.lA [Oligo 11919]
- miR208a inhibition activity (dual-luciferase reporter), in words (miR-208a): slightly less activity compared to the other two inhibitors
- affinity for the miR-208a RNA (Tm data), in words (mature human miR-208a; PS backbone oligonucleotides): less affinity for the miR-208a RNA than the M-11920 compound
- Tm (mature human miR-208a; PS backbone, 10101-like): 80.04
- ΔTm/mod (mature human miR-208a; [1]): -6.66 ° C./modification
- ΔTm, parent (mature human miR-208a; PS backbone): -6.66

Substance: lCs.dTs.dTs.dTs.lTs.lTs.dGs.lCs.dTs.lCs.lGs.dTs.lCs. dTs.abTs.lA [Oligo 11920]
- miR208a inhibition activity (dual-luciferase reporter), in words (miR-208a; listed as M-11920): comparable activity as compound M-10101; also recorded: retains all activity of the optimized M-10101 compound
- Tm (mature human miR-208a; PS backbone, 10101-like): 85.125
- ΔTm/mod (mature human miR-208a; [1]): -0.7875 ° C./modification
- ΔTm, parent (mature human miR-208a; PS backbone): -1.575

— US10011833B2, “Bridged bicyclic nucleosides” (MIRAGEN THERAPEUTICS, INC., priority 2013, dated 2018)
